These results are taken from US20140378502A1, “Par1 Inhibitors for Use in the Treatment or Prevention of Paramyxoviridae Infections” (Université Laval, priority 2011, published 2014).

For assay [1], the system named is hMPV strain C-85473. The assay can be described thus: hMPV-infected BALB/c mice, three-day prophylactic treatment regimen (experiment 1). It counts as in vivo. As to conditions: 3-day treatment. On the procedure:
(§1) hMPV viral titers were determined by 10-fold serial dilutions of virus in 24-well plates containing LLC-MK2 cells. Before infection, cells were washed twice with phosphate-buffered saline (PBS) to remove residual serum proteins that could inhibit trypsin activity. Infected plates were incubated at 37° C. with 5% CO2 and replenished with 1 μl of fresh trypsin (0.0002%) every other day. hRSV viral titers were determined by 10-fold serial dilutions of virus in 24-well plates containing Hep2 cells. Before infection, cells were washed twice with phosphate-buffered saline (PBS). Infected plates were incubated at 37° C. with 5% CO2. On day 4 post infection, plates were fixed with 80% acetone at −20° C. for 30 min, washed with PBS and air dried. The presence of hRSV was detected by an immuno-staining assay using a monoclonal goat Anti-Respiratory Syncytial Virus primary antibody and a donkey anti-Goat IgG Secondary Antibody, HRP conjugate (both from Cederlane). Virus titers were reported as 50% tissue culture infectious doses (TCID50) per ml, per mouse or per gram of lung. The lower limit of detection of the assay is 10^2 TCID50 per gram. TCID50 were calculated by the Reed and Muench method.
In the first protocol, groups of 12 4-6-week-old female BALB/c mice (Charles River Laboratories) were infected intranasally with 4-7×10^5 TCID50 hMPV strain C-85473 in 25 μl of OptiMEM™ supplemented with the PAR-1 or PAR-1 antagonist at a final concentration of 50 μM or 500 μM. As infected controls, groups of 12 4-6-week-old BALB/c mice (Charles River Laboratories) were infected intranasally with 4-7×10^5 TCID50 hMPV strain C-85473 in 25 μl of OptiMEM™ supplemented with H2O or DMSO. As an uninfected control, 12 mice were sham infected with the concentrated supernatant of non-infected LLC-MK2 cells supplemented with DMSO. On day 1 and 2 post infection, animals were treated with the PAR-1 agonist or PAR-1 antagonist at a final concentration of 50 μM or 500 μM, or H2O or DMSO for control groups, resulting in a 3-day treatment in total. All animals were housed in groups of four in micro-isolator cages. The animals were evaluated on a daily basis for mortality, weight loss, and the presence of symptoms. On day 5 post-infection, lungs were removed from six mice per group for the evaluation of viral titres by cell culture and cytokine expression by Luminex™.
(§2) On day 5 post infection, six animals per group were sacrificed, the lungs were removed and snap frozen in liquid nitrogen. Lungs were weighed, homogenized in 1 ml of PBS, centrifuged (2000 rpm, 10 min) and the supernatant was used to infect LLC-MK2 monolayers (in case of hMPV-infected mice) or Hep2 monolayer (in case of hRSV-infected mice) for virus titration as reported in the section “Viral titers”.
250 μL of lung homogenates (see section “Pulmonary viral titers”) were added to 250 μl 50 mM KPO4, pH 6.0 buffer containing 0.2% CHAPS {3-[(3-cholamidopropyl)-dimethylammonio]1-1-propanesulfonate} (Sigma) and 0.2% of a protease inhibitor cocktail (Sigma) and stored at −20° C. until the day of analysis. Samples were centrifuged at 13,800×g for 10 min at 4° C., and 50 μl of the supernatant was used for cytokine quantification. Levels of interleukin-4, IL-6, IL-12(p40), IL-12(p70), IFN-γ, KC, MCP-1, MIP-1α, RANTES were determined by the use of a 9-plex mouse bead kits (BioRad™/Millipore™) according to the manufacturer's instructions. Experiments were performed in a 96-well filter plate and results were analysed with the Luminex™ system (Qiagen™).
(§3) Differences in weight loss between groups was analysed by repeated measures two-way ANOVA. Viral titers, cytokine levels and mean histopathology scores were analysed using student t-test.

The test system of assay [2] is hMPV strain C-85473. Briefly: hMPV-infected BALB/c mice, five-day treatment started simultaneously or 24 h post infection (experiment 3). It counts as in vivo. As to conditions: 500 μM. The protocol: as §1
In a third protocol, Two groups of 12 4-6-week-old BALB/c mice (Charles River Laboratories) were infected intranasally with 6×105 TCID50 hMPV strain C-85473 in 25 μl of OptiMEM™, supplemented with the PAR-1 agonist or PAR-1 antagonist at a final concentration of 500 μM and treated on days 1 through 4 post infection with the PAR-1 agonist or PAR-1 antagonist (500 μM). Two more groups of 4-6-week-old BALB/c mice (Charles River Laboratories) were infected intranasally with 6×105 TCID50 hMPV strain C-85473 in 25 μl of OptiMEM™. These groups were treated from day 1 though 5 post infection (treatment delayed 24 h post-infection) with the PAR-1 agonist or PAR-1 antagonist (500 μM). As infected controls, groups of 12 4-6-week-old BALB/c mice (Charles River Laboratories) were infected intranasally with 4×105 TCID50 hMPV strain C-85473 in 25 μl of OptiMEM supplemented with DMSO. All animals were housed in groups of four in micro-isolator cages. The animals were evaluated on a daily basis for mortality, weight loss, and the presence of symptoms. On day 5 post-infection, lungs were removed from six mice per group for the evaluation of viral titres by cell culture
as §2, §3

Molecules are shown by their SMILES.

In the case of `CC(C)c1ccc(Cn2ccc3c4c(N)nc(NC5CC5)nc4ccc32)cc1` [PAR-1 antagonist, N3-cyclopropyl-7-{[4(I-methylethyl)phenyl]methyl)-7H-pyrrolo[3,2-f]quinazoline-I,3-diamine], the pulmonary viral titers entry is given as “significant (though not dose-dependent) reduction” in the assay on hMPV strain C-85473 [1] (day 5 post hMPV infection, 50 or 500 μM, vs diluted DMSO or H2O treated mice) and “reduction in pulmonary viral titers” with hMPV strain C-85473 [2] (day 5 post infection, treatment simultaneous or started 24 h post infection, vs infected/untreated). Further, in the assay with hMPV strain C-85473 [1] (day 5 post infection, 50 or 500 μM, Luminex), the “cytokine expression in the lungs” value is on record as “no significant difference in cytokine expression”. In addition, the weight loss result in the assay with hMPV strain C-85473 [1] (hMPV-infected mice, 50 or 500 μM intranasal, vs infected untreated mice (H2O or DMSO), followed 14 days) was “dose dependent reduction in weight loss”; in the assay on hMPV strain C-85473 [2] (5-day prophylactic treatment started simultaneously with infection, vs infected/untreated group (FIG. 12)), “significant reduced weight loss”; with hMPV strain C-85473 [2] (5-day treatment started 24 h post infection, vs infected/untreated mice (FIG. 13)), “lost less weight than infected/untreated mice and weight loss started at a later time point”; with hMPV strain C-85473 [2] (5-day treatment started 24 h post infection, vs infected/untreated mice (FIG. 13), listed as PAR1 antagonists) it was “started losing weight later and lost less weight than untreated infected mice, although the difference was not found to be statistically significant”.
